Experimental data: US20140023611A1 (priority 2010, published 2014)

Target: T1, rat NaP2b (SLC34A2) (Rattus norvegicus, UniProt Q9JJ09)
T1 construct: host or cells: HEK293
T1 sequence (Q9JJ09 1-695): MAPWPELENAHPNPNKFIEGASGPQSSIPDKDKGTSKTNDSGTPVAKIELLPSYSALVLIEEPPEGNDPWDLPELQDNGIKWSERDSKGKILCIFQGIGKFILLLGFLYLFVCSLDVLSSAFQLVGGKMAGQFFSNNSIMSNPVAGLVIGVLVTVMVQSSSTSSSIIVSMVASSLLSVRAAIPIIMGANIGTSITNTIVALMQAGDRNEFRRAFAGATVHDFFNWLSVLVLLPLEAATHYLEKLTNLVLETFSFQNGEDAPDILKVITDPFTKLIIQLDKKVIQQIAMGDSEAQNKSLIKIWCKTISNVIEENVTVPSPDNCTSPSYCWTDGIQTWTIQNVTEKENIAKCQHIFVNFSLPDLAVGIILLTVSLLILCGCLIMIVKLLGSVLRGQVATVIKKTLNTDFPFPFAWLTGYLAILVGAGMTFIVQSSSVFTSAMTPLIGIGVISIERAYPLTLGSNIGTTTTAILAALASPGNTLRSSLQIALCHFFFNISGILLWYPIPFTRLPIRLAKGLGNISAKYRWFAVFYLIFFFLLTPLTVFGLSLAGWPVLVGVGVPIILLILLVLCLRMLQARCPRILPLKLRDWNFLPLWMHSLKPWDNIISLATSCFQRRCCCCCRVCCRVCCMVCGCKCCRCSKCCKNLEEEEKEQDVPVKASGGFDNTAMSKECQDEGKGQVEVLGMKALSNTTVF
Test: Inhibition of NaP2b-mediated Pi (33P) uptake in transfected HEK293 cells, rat NaP2b
Format: cell-based
Conditions: 33P Pi uptake, 0.1 mM phosphate, value given as pIC50 range
Outline: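 The cells transiently expressed NaP2b after Lipofectamine transfection. Each compound was run in duplicate over twelve concentrations, 0.1 nM–30 uM.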

IC50 [µM]	Structure (SMILES)
1 to 7.94	O=C(O)CCSCc1cccc(C(=O)Nc2ccc(N3CCCCC3)cc2-c2cc(C(=O)NCC3CCCCC3)ccn2)c1 [Example 1.7]
10 to 31.6	Cc1ccc(C(=O)Nc2ccnc(-c3cc(N4CCCCC4)ccc3NC(=O)c3cccc(CSCCC(=O)O)c3)c2)cc1C [Example 74, 3-((3-((2-(4-(3,4-Dimethylbenzamido)pyridin-2-yl)-4-(piperidin-1-yl)phenyl)carbamoyl)benzyl)thio)propanoic acid]
1 to 7.94	CCCCCCCNC(=O)c1ccnc(-c2cc(N3CCCCC3)ccc2NC(=O)c2cccc(CSCCC(=O)O)c2)c1 [Example 1.6]
1 to 7.94	O=C(O)CCCSCc1cccc(C(=O)Nc2ccc(N3CCCCC3)cc2-c2cc(C(=O)NCc3cccc(C(F)(F)F)c3)ccn2)c1 [Example 8.5]
1 to 7.94	CC(C)(C)c1ccc(CNC(=O)c2ccnc(-c3cc(N4CCCCC4)ccc3NC(=O)c3cccc(CSCCC(=O)O)c3)c2)cc1 [Example 1.3, 3-((3-((2-(4-((4-(Tert-butyl)benzyl)carbamoyl)pyridin-2-yl)-4-(piperidin-1-yl)phenyl)carbamoyl)benzyl)thio)propanoic acid]
< 1	O=C(O)Cc1ccc(SCc2cccc(C(=O)Nc3ccc(N4CCCCC4)cc3-c3cc(C(=O)NCc4cccc(C(F)(F)F)c4)ccn3)c2)cc1 [Example 8.17]
10 to 31.6	Cc1cccc(CNc2cc(-c3cc(N4CCCCC4)ccc3NC(=O)c3cccc(CSCCC(=O)O)c3)ncn2)c1 [Example 3.2, 3-((3-((4-(Piperidin-1-yl)-2-(6-((3-methylbenzyl)amino)pyrimidin-4-yl)phenyl)carbamoyl)benzyl)thio)propanoic acid]
1 to 7.94	COc1ccccc1CNC(=O)c1ccnc(-c2cc(N3CCCCC3)ccc2NC(=O)c2cccc(C(=O)N(C)CCN3CCOCC3)c2)c1 [Example 124, N1-(2-(4-((2-methoxybenzyl)carbamoyl)pyridin-2-yl)-4-(piperidin-1-yl)phenyl)-N3-methyl-N3-(2-morpholinoethyl)isophthalamide]
1 to 7.94	CCN(CC)c1ccc(NC(=O)c2cccc(CCCOCCOCCOCCOCCC(=O)N(C)CCOCCOCCOCCOCCOCCOCCOC)c2)c(-c2cc(C(=O)NCc3cccc(C(F)(F)F)c3)ccn2)c1 [Example 259, 2-(5-(diethylamino)-2-(3-(23-methyl-24-oxo-2,5,8,11,14,17,20,27,30,33,36-undecaoxa-23-azanonatriacontan-39-yl)benzamido)phenyl)-N-(3-(trifluoromethyl)benzyl)isonicotinamide]
10 to 31.6	CC(=O)N1CCN(CCN(C)Cc2cccc(C(=O)Nc3ccc(N4CCCCC4)cc3-c3cc(C(=O)NCc4cccc(C(F)(F)F)c4)ccn3)n2)CC1 [Example 60, 6-(((2-(4-Acetylpiperazin-1-yl)ethyl)(methyl)amino)methyl)-N-(4-(piperidin-1-yl)-2-(4-((3-(trifluoromethyl)benzyl)carbamoyl)pyridin-2-yl)phenyl)picolinamide]
1 to 7.94	O=C(O)CCSCc1cccc(C(=O)Nc2ccc(N3CCCCC3)cc2-c2cc(C(=O)NCc3ccc(Cl)c(C(F)(F)F)c3)ccn2)c1 [Example 1.33]
< 1	CCN(CC)c1ccc(NC(=O)c2cccc(CCCOCCOCCOCCOCCNS(=O)(=O)c3ccc(CCC(=O)O)cc3)c2)c(-c2cc(C(=O)N[C@H]3CCCc4ccccc43)ccn2)c1 [Example 320]

Further lines, the compound ahead of its results:

Structure (SMILES)	IC50 [µM]
O=C(O)CCSCc1cccc(C(=O)Nc2ccc(N3CCCCC3)cc2-c2cc(NCc3cccc(C(F)(F)F)c3)ccn2)c1 [Example 69, 3-((3-((4-(Piperidin-1-yl)-2-(4-((3-(trifluoromethyl)benzyl)amino)pyridin-2-yl)phenyl)carbamoyl)benzyl)thio)propanoic acid]	10 to 31.6
O=C(O)CCSCc1cccc(C(=O)Nc2ccc(N3CCCCC3)cc2-c2cc(NCc3ccc(Cl)c(C(F)(F)F)c3)ncn2)c1 [Example 3.5, 3-((3-((2-(6-((4-Chloro-3-(trifluoromethyl)benzyl)amino)pyrimidin-4-yl)-4-(piperidin-1-yl)phenyl)carbamoyl)benzyl)thio)propanoic acid]	1 to 7.94
CCN(CC)c1ccc(NC(=O)c2cccc(CCCOCCOCCOCCOCCNC(=O)c3cc[nH]n3)c2)c(-c2cc(C(=O)N[C@H]3CCCc4ccccc43)ccn2)c1 [Example 323]	< 1
CC(=O)N[C@@H]1CCN(Cc2cccc(C(=O)Nc3ccc(N4CCCCC4)cc3-c3cc(C(=O)NCc4cccc(C(F)(F)F)c4)ccn3)n2)C1 [Example 55, (R)-6-((3-Acetamidopyrrolidin-1-yl)methyl)-N-(4-(piperidin-1-yl)-2-(4-((3-(trifluoromethyl)benzyl)carbamoyl)pyridin-2-yl)phenyl)picolinamide 2,2,2-trifluoroacetate]	1 to 7.94
CC(=O)N1CCN(CCN(C)C(=O)c2cccc(C(=O)Nc3ccc(N4CCCCC4)cc3-c3cc(C(=O)NCc4cccc(C(F)(F)F)c4)ccn3)c2)CC1 [Example 81, N1-(2-(4-Acetylpiperazin-1-yl)ethyl)-N1-methyl-N3-(4-(piperidin-1-yl)-2-(4-(3-(trifluoromethyl)benzylcarbamoyl)pyridin-2-yl)phenyl)isophthalamide]	1 to 7.94
O=C(O)CCSCc1cccc(C(=O)Nc2ccc(N3CCCCC3)cc2-c2cc(Nc3cccc(C(F)(F)F)c3)ccn2)c1 [Example 72, 3-((3-((4-(Piperidin-1-yl)-2-(4-((3-(trifluoromethyl)phenyl)amino)pyridin-2-yl)phenyl)carbamoyl)benzyl)thio)propanoic acid]	10 to 31.6
CN1CCN(C(=O)c2cccc(SCc3cccc(C(=O)Nc4ccc(N5CCCCC5)cc4-c4cc(C(=O)NCc5cccc(C(F)(F)F)c5)ccn4)c3)c2)CC1 [Example 10.3]	10 to 31.6
CC(C)CNC(=O)c1ccnc(-c2cc(N3CCCCC3)ccc2NC(=O)c2cccc(CSCCC(=O)O)c2)c1 [Example 1.8]	10 to 31.6
O=C(O)CCSCc1cccc(C(=O)Nc2ccc(N3CCCCC3)cc2-c2cc(C(=O)NCc3ccccc3C(F)(F)F)ccn2)c1 [Example 1.48]	1 to 7.94
CCN(CC)c1ccc(NC(=O)c2cccc(C(=O)N(C)CCN(C)CCOCCOCCOCCNC(=O)c3cccnc3)c2)c(-c2cc(C(=O)N[C@H]3CCCc4ccccc43)ccn2)c1 [Example 342, (S)—N^1-(4-(Diethylamino)-2-(4-(1,2,3,4-tetrahydronaphthalen-1-ylcarbamoyl)pyridin-2-yl)phenyl)-N^3-methyl-N^3-(14-methyl-1-oxo-1-(pyridin-3-yl)-5,8,11-trioxa-2,14-diazahexadecan-16-yl)isophthalamide]	1 to 7.94
CC(Nc1cc(-c2cc(N3CCCCC3)ccc2NC(=O)c2cccc(CSCCC(=O)O)c2)ncn1)c1cccc(C(F)(F)F)c1 (stereo not shown) [Example 76, 3-((3-((4-(Piperidin-1-yl)-2-(6-((1-(3-(trifluoromethyl)phenyl)ethyl)amino)pyrimidin-4-yl)phenyl)carbamoyl)benzyl)thio)propanoic acid]	10 to 31.6
CN(CCN1CCOCC1)C(=O)c1cccc(C(=O)Nc2ccc(N3CCC[C@H]4CCCC[C@@H]43)cc2-c2cc(C(=O)NCc3cccc(C(F)(F)F)c3)ccn2)c1 [Example 114]	1 to 7.94
CN(Cc1cccc(C(=O)O)c1)C(=O)c1cccc(C(=O)Nc2ccc(N3CCCCC3)cc2-c2cc(C(=O)NCc3cccc(C(F)(F)F)c3)ccn2)c1 [Example 4.32, 3-((N-Methyl-3-(4-(piperidin-1-yl)-2-(4-(3-(trifluoromethyl)benzylcarbamoyl)pyridin-2-yl)phenylcarbamoyl)benzamido)methyl)benzoic acid]	1 to 7.94
